{"source": "paper PMC11578313", "about": "“Miniaturized Modular Click Chemistry‐enabled Rapid Discovery of Unique SARS‐CoV‐2 M^pro Inhibitors With Robust Potency and Drug‐like Profile” (Advanced Science, 2024)", "test": "In vivo pharmacokinetic study in male ICR mice (compound alone)", "settings": "male, ICR, mouse, plasma", "description": "The pharmacokinetics profile of the newly developed antiviral compound C5N17B was subsequently evaluated in male ICR mice that were free from specific pathogens, aiming to assess its potential for therapeutic application in vivo.\nA total of six male ICR mice were randomly assigned to two groups. One group received the test drug intravenously at a dosage of 2 mg kg^−1, while the other group received oral administration at a dosage of 10 mg kg^−1. To prepare solutions of C5N17B, 2.39 mg compound was dissolved in a mixture of 0.119 mL DMSO, 0.238 mL polyoxyl 15 hydroxystearate (Solutol), and 2.027 mL normal saline. For the intravenous group, blood samples were collected from the sinus jugular into heparinized centrifugation tubes at various time points after dosing: 5, 15, 30 min, 1, 2, 4, 6, 8, and 24 h. As for the oral administration group, blood samples were collected at similar time points (0.05 mL of blood each time). The collected blood samples were then centrifuged at a speed of 4000 rpm for 10 min to separate plasma, which was subsequently stored at −20 °C until further LC‐MS analysis to determine the concentration of C5N17B. Briefly, the analysis involved adding 20 µL of plasma, sample calibration standard, quality control, and dilution quality control, and blank samples into respective wells on a 96‐well plate. Then each sample was quenched with 200 µL of internal standard (the blank sample was quenched with 200 µL of ACN: MeOH = 1:1), followed by vortex‐mixed for 5 min, and centrifuged for 0.5 min at 4000 rpm, 4 °C. Next, a 100 µL portion of supernatant was transferred to another clean 96‐well plate and diluted with 100 µL of water, vortex‐mixed for 5 min and centrifuged for 10 min at 4000 rpm, 4 °C, then the sample was injected for LC‐MS/MS analysis. All samples were quantified using an LC‐MS/MS‐AR Triple Quad 5500+ (SCIEX, USA) and the ExionLC liquid phase system. The mobile phase was 0.1% formic acid‐water/ACN with gradient elute at a flow rate of 0.8 mL mi^−1n (total time 2.20 min), and the detection wavelength was 225 nm. All blood samples were centrifuged using an Eppendorf 5424R centrifuge and quantified using an LC‐MS/MS‐AR Triple Quad 5500+ (SCIEX, USA). The pharmacokinetic parameters were calculated by WinNolin 8.2 software.", "note": "Where two headings read alike, the source gives them in different places."}
{"smiles": "Cc1cncc(C(=O)N2C[C@H]3CC[C@@H](C2)N3[C@H](c2cccc(F)c2)c2cn(CCc3ccsc3)nn2)c1", "note": "[Compound C5N17B]", "values": [{"measurement": "AUC", "setting": "iv, 2 mg/kg, i.v. 2 mg kg^−1, male ICR mice, n = 3, read-out: AUC0‐∞, i.v.", "value": "65.9 ± 14.9", "unit": "ng·h/mL"}, {"measurement": "clearance", "setting": "iv, 2 mg/kg, i.v. 2 mg kg^−1, male ICR mice, n = 3, read-out: CL, i.v. (converted)", "value": 524, "unit": "mL/min/kg"}, {"measurement": "Cmax", "setting": "iv, 2 mg/kg, i.v. 2 mg kg^−1, male ICR mice, n = 3, read-out: Cmax, i.v.", "value": "237 ± 53.6", "unit": "ng/mL"}, {"measurement": "MRT", "setting": "iv, 2 mg/kg, i.v. 2 mg kg^−1, male ICR mice, n = 3, read-out: MRT0‐t, i.v.", "value": "5.81 ± 894", "unit": "min"}, {"measurement": "MRT", "setting": "iv, 2 mg/kg, i.v. 2 mg kg^−1, male ICR mice, n = 3, read-out: MRT0‐∞, i.v.", "value": "6.96 ± 0.391", "unit": "min"}, {"measurement": "Tmax", "setting": "iv, 2 mg/kg, i.v. 2 mg kg^−1, male ICR mice, n = 3, read-out: Tmax, i.v.", "value": 4.98, "unit": "min"}, {"measurement": "half-life", "setting": "iv, 2 mg/kg, i.v. 2 mg kg^−1, male ICR mice, n = 3, read-out: t1/2, i.v. (converted)", "value": 6.6, "unit": "min"}, {"measurement": "bioavailability", "setting": "oral, 10 mg kg^−1, p.o. 10 mg kg^−1 vs i.v. 2 mg kg^−1, male ICR mice, read-out: F (oral bioavailability)", "value": 13, "unit": "%"}, {"measurement": "concentration at 5 min", "setting": "oral, 10 mg/kg, PO 10 mg/kg (10MPK), 5 min, mean of mice 4#-6#, read-out: Plasma concentration, Mean", "value": 40.6, "unit": "ng/mL"}, {"measurement": "concentration at 15 min", "setting": "oral, 10 mg/kg, PO 10 mg/kg (10MPK), 15 min, mouse plasma, individual mice 4-6, read-out: Plasma concentration (Calculated Concentration)", "value": 18, "unit": "ng/mL"}, {"measurement": "concentration at 30 min", "setting": "oral, 10 mg/kg, PO 10 mg/kg (10MPK), 30 min, sample marked \"re\", individual mouse, read-out: Plasma concentration (Calculated Concentration), re-analysis", "value": 4.52, "unit": "ng/mL"}, {"measurement": "concentration at 1 hr", "setting": "oral, 10 mg/kg, PO 10 mg/kg (10MPK), 1 hr, samples marked \"re\", individual mice, read-out: Plasma concentration (Calculated Concentration), re-analysis", "value": 7.4, "unit": "ng/mL"}, {"measurement": "concentration at 2 hr", "setting": "oral, 10 mg/kg, PO 10 mg/kg (10MPK), 2 hr, sample marked \"re\", individual mouse, read-out: Plasma concentration (Calculated Concentration), re-analysis", "value": 15.7, "unit": "ng/mL"}, {"measurement": "concentration at 4 h", "setting": "oral, 10 mg/kg, PO 10 mg/kg (10MPK), 4 hr, mouse plasma, individual mice 4-6, read-out: Plasma concentration (Calculated Concentration)", "value": 5.85, "unit": "ng/mL"}, {"measurement": "concentration at 6 h", "setting": "oral, 10 mg/kg, PO 10 mg/kg (10MPK), 6 hr, mouse plasma, individual mice 4-6, read-out: Plasma concentration (Calculated Concentration)", "value": 2.52, "unit": "ng/mL"}, {"measurement": "Tmax", "setting": "po, 10 mg/kg, PO 10 mg/kg (10MPK), individual mice 4#-6#, read-out: Tmax", "value": 5, "unit": "min"}, {"measurement": "half-life", "setting": "po, 10 mg/kg, PO 10 mg/kg (10MPK), mean of mice 4#-6#, read-out: T1/2, Mean (converted)", "value": 213, "unit": "min"}, {"measurement": "Tmax", "setting": "po, 10 mg/kg, PO 10 mg/kg (10MPK), mean of mice 4#-6#, read-out: Tmax, Mean", "value": 5, "unit": "min"}, {"measurement": "concentration at 0.5 h", "setting": "po, 10 mg/kg, PO 10 mg/kg, 0.50 h, mean of mice 4#-6#, read-out: plasma concentration, Mean", "value": 8.28, "unit": "ng/mL"}, {"measurement": "concentration at 1 h", "setting": "po, 10 mg/kg, PO 10 mg/kg, 1 h, mean of mice 4#-6#", "value": 7.2, "unit": "ng/mL"}, {"measurement": "concentration at 2 h", "setting": "po, 10 mg/kg, PO 10 mg/kg, 2 h, mean of mice 4#-6#", "value": 10.5, "unit": "ng/mL"}, {"measurement": "concentration at 4 h", "setting": "po, 10 mg/kg, PO 10 mg/kg, 4 h, individual mice 4#-6#, read-out: plasma concentration", "value": 5.85, "unit": "ng/mL"}, {"measurement": "concentration at 4 h", "setting": "po, 10 mg/kg, PO 10 mg/kg, 4 h, mean of mice 4#-6#, read-out: plasma concentration, Mean", "value": 5.98, "unit": "ng/mL"}, {"measurement": "concentration at 6 h", "setting": "po, 10 mg/kg, PO 10 mg/kg, 6 h, individual mice 4#-6#, read-out: plasma concentration", "value": 2.52, "unit": "ng/mL"}, {"measurement": "concentration at 6 h", "setting": "po, 10 mg/kg, PO 10 mg/kg, 6 h, mean (only 5# quantifiable), read-out: plasma concentration, Mean", "value": 2.52, "unit": "ng/mL"}, {"measurement": "AUC(0-t)", "setting": "po, 10 mg/kg, PO 10 mg/kg, individual mice 4#-6#, read-out: AUC0-t", "value": 30.4, "unit": "ng·h/mL"}, {"measurement": "AUC(0-inf)", "setting": "po, 10 mg/kg, PO 10 mg/kg, individual mice 4#-6#, read-out: AUC0-∞", "value": 59.6, "unit": "ng·h/mL"}, {"measurement": "bioavailability", "setting": "po, 10 mg/kg, PO 10 mg/kg, individual mice 4#-6#, read-out: F", "value": 9.56, "unit": "%"}, {"measurement": "MRT last", "setting": "po, 10 mg/kg, PO 10 mg/kg, individual mice 4#-6#, read-out: MRT0-t", "value": 97.2, "unit": "min"}, {"measurement": "AUC(0-inf)", "setting": "po, 10 mg/kg, PO 10 mg/kg, individual mice 4-6, read-out: AUCINF_obs", "value": 59.6, "unit": "ng·h/mL"}, {"measurement": "AUC(0-inf)", "setting": "po, 10 mg/kg, PO 10 mg/kg, individual mice 4-6, read-out: AUCINF_pred", "value": 55, "unit": "ng·h/mL"}, {"measurement": "AUC", "setting": "po, 10 mg/kg, PO 10 mg/kg, individual mice 4-6, read-out: AUCall", "value": 30.4, "unit": "ng·h/mL"}, {"measurement": "AUC(0-t)", "setting": "po, 10 mg/kg, PO 10 mg/kg, individual mice 4-6, read-out: AUClast", "value": 30.4, "unit": "ng·h/mL"}, {"measurement": "CL/F", "setting": "po, 10 mg/kg, PO 10 mg/kg, individual mice 4-6, read-out: Cl_F_obs (converted)", "value": 2800, "unit": "mL/min/kg"}, {"measurement": "MRT last", "setting": "po, 10 mg/kg, PO 10 mg/kg, individual mice 4-6, read-out: MRTlast", "value": 97.3, "unit": "min"}, {"measurement": "Tmax", "setting": "po, 10 mg/kg, PO 10 mg/kg, individual mice 4-6, read-out: Tmax", "value": 5, "unit": "min"}, {"measurement": "AUC(0-t)", "setting": "po, 10 mg/kg, PO 10 mg/kg, mean of mice 4#-6#, read-out: AUC0-t, Mean", "value": 41.3, "unit": "ng·h/mL"}, {"measurement": "AUC(0-inf)", "setting": "po, 10 mg/kg, PO 10 mg/kg, mean of mice 4#-6#, read-out: AUC0-∞, Mean", "value": 71.9, "unit": "ng·h/mL"}, {"measurement": "Cmax", "setting": "po, 10 mg/kg, PO 10 mg/kg, mean of mice 4#-6#, read-out: Cmax, Mean", "value": 40.6, "unit": "ng/mL"}, {"measurement": "MRT last", "setting": "po, 10 mg/kg, PO 10 mg/kg, mean of mice 4#-6#, read-out: MRT0-t, Mean", "value": 107, "unit": "min"}, {"measurement": "MRT inf", "setting": "po, 10 mg/kg, PO 10 mg/kg, mean of mice 4#-6#, read-out: MRT0-∞, Mean", "value": 300, "unit": "min"}, {"measurement": "AUC", "setting": "po, 10 mg/kg, p.o. 10 mg kg^−1, male ICR mice, n = 3, read-out: AUC0‐t, p.o.", "value": "41.3 ± 9.5", "unit": "ng·h/mL"}, {"measurement": "AUC", "setting": "po, 10 mg/kg, p.o. 10 mg kg^−1, male ICR mice, n = 3, read-out: AUC0‐∞, p.o.", "value": "71.9 ± 26", "unit": "ng·h/mL"}, {"measurement": "Cmax", "setting": "po, 10 mg/kg, p.o. 10 mg kg^−1, male ICR mice, n = 3, read-out: Cmax, p.o.", "value": "40.6 ± 24.1", "unit": "ng/mL"}, {"measurement": "MRT", "setting": "po, 10 mg/kg, p.o. 10 mg kg^−1, male ICR mice, n = 3, read-out: MRT0‐t, p.o.", "value": "107 ± 8.7", "unit": "min"}, {"measurement": "MRT", "setting": "po, 10 mg/kg, p.o. 10 mg kg^−1, male ICR mice, n = 3, read-out: MRT0‐∞, p.o.", "value": "300 ± 108", "unit": "min"}, {"measurement": "Tmax", "setting": "po, 10 mg/kg, p.o. 10 mg kg^−1, male ICR mice, n = 3, read-out: Tmax, p.o.", "value": 4.8, "unit": "min"}, {"measurement": "half-life", "setting": "po, 10 mg/kg, p.o. 10 mg kg^−1, male ICR mice, n = 3, read-out: t1/2, p.o. (converted)", "value": "213 ± 72", "unit": "min"}, {"measurement": "Cmax", "setting": "po, 10 mg/kg, p.o. 10 mg kg^−1, male ICR mice, read-out: Cmax, p.o.", "value": 78.6, "unit": "nM"}]}
